Test results from ChEMBL document CHEMBL1126957, “Structure-activity relationship within a series of pyrazolidinone antibacterial agents. 1. Effect of nuclear modification on in vitro activity” (1993).
≈ marks a conversion by molar mass, not a printed value.

Columns and labels:
Assay type in all cases: functional
Escherichia coli = assay: In vitro antibacterial activity against Escherichia coli EC14
Klebsiella pneumoniae = assay: In vitro antibacterial activity against Klebsiella X26
Pseudomonas aeruginosa = assay: In vitro antibacterial activity against Pseudomonas X239
Streptococcus pneumoniae = assay: In vitro antibacterial activity against Streptococcus pneumoniae PARK
Staphylococcus aureus = assay: In vitro antibacterial activity against Staphylococcus aureus X1.1
Serratia marcescens = assay: In vitro antibacterial activity against Serratia X99
Haemophilus influenzae = assay: In vitro antibacterial activity against Haemophilus influenza C.L
Klebsiella aerogenes = assay: In vitro antibacterial activity against Enterobacter aerogenes C32

SMILES | MIC (Escherichia coli) [µg/mL] | MIC (Klebsiella pneumoniae) [µg/mL] | MIC (Pseudomonas aeruginosa) [µg/mL] | MIC (Streptococcus pneumoniae) [µg/mL] | MIC (Staphylococcus aureus) [µg/mL] | MIC (Serratia marcescens) [µg/mL] | MIC (Haemophilus influenzae) [µg/mL] | MIC (Klebsiella aerogenes) [µg/mL]
CO/N=C(\C(=O)NC1CN2CC(S(C)(=O)=O)=C(C(=O)O)N2C1=O)c1csc(N)n1 (configuration not stated) | 0.125 (≈ 0.281 µM) | 0.25 (≈ 0.562 µM) | > 128 | 0.25 (≈ 0.562 µM) | 64 (≈ 144 µM) | 0.25 (≈ 0.562 µM) | 2 (≈ 4.5 µM) | 0.25 (≈ 0.562 µM)
CO/N=C(\C(=O)NC1CN2CC(C(=O)OCc3ccccc3)=C(C(=O)O)N2C1=O)c1csc(N)n1 (configuration not stated) | 64 (≈ 128 µM) | 64 (≈ 128 µM) | > 128 | 64 (≈ 128 µM) | 128 (≈ 256 µM) | 64 (≈ 128 µM) | 64 (≈ 128 µM) | 64 (≈ 128 µM)
CO/N=C(\C(=O)N[C@H]1CN2CC(C#N)=C(C(=O)O)N2C1=O)c1csc(N)n1 | 0.25 (≈ 0.639 µM) | 0.25 (≈ 0.639 µM) | > 128 | 0.25 (≈ 0.639 µM) | 64 (≈ 164 µM) | 1 (≈ 2.56 µM) | 0.5 (≈ 1.28 µM) | 1 (≈ 2.56 µM)
CO/N=C(\C(=O)NC1CN2CCC(C(C)=O)=C(C(=O)O)N2C1=O)c1csc(N)n1 (configuration not stated) | > 128 | > 128 | > 128 | > 128 | > 128 | > 128 | > 128 | > 128
CO/N=C(\C(=O)NC1CN2CC(C(=O)OC)=C(C(=O)O)N2C1=O)c1csc(N)n1 (configuration not stated) | 8 (≈ 18.9 µM) | 8 (≈ 18.9 µM) | > 128 | 8 (≈ 18.9 µM) | > 128 | 8 (≈ 18.9 µM) | 32 (≈ 75.4 µM) | 16 (≈ 37.7 µM)
CCOC(=O)C1=C(C(=O)O)N2C(=O)C(NC(=O)/C(=N\OC)c3csc(N)n3)CN2C1 (configuration not stated) | 16 (≈ 36.5 µM) | 8 (≈ 18.2 µM) | > 128 | 8 (≈ 18.2 µM) | > 128 | 16 (≈ 36.5 µM) | 32 (≈ 73 µM) | 32 (≈ 73 µM)
CCCOC(=O)C1=C(C(=O)O)N2C(=O)C(NC(=O)/C(=N\OC)c3csc(N)n3)CN2C1 (configuration not stated) | 32 (≈ 70.7 µM) | 8 (≈ 17.7 µM) | > 128 | 8 (≈ 17.7 µM) | > 128 | 32 (≈ 70.7 µM) | 32 (≈ 70.7 µM) | 64 (≈ 141 µM)
CO/N=C(\C(=O)N[C@H]1CN2CC(S(=O)(=O)c3ccccc3)=C(C(=O)O)N2C1=O)c1csc(N)n1 | 0.5 (≈ 0.987 µM) | 0.125 (≈ 0.247 µM) | > 128 | 0.125 (≈ 0.247 µM) | 32 (≈ 63.2 µM) | 1 (≈ 1.97 µM) | 0.5 (≈ 0.987 µM) | 1 (≈ 1.97 µM)
CO/N=C(\C(=O)N[C@H]1CN2CC(S(C)(=O)=O)=C(C(=O)O)N2C1=O)c1csc(N)n1 | 0.06 (≈ 0.135 µM) | 0.125 (≈ 0.281 µM) | > 128 | 0.25 (≈ 0.562 µM) | 32 (≈ 72 µM) | 0.125 (≈ 0.281 µM) | 0.5 (≈ 1.12 µM) | 0.25 (≈ 0.562 µM)
CCS(=O)(=O)C1=C(C(=O)O)N2C(=O)[C@@H](NC(=O)/C(=N\OC)c3csc(N)n3)CN2C1 | 0.125 (≈ 0.273 µM) | 0.125 (≈ 0.273 µM) | > 128 | 0.125 (≈ 0.273 µM) | 32 (≈ 69.8 µM) | 0.25 (≈ 0.545 µM) | 0.5 (≈ 1.09 µM) | 0.25 (≈ 0.545 µM)
CCC(=O)C1=C(C(=O)O)N2C(=O)C(NC(=O)/C(=N\OC)c3csc(N)n3)CN2C1 (configuration not stated) | 4 (≈ 9.47 µM) | 2 (≈ 4.73 µM) | > 128 | 2 (≈ 4.73 µM) | 64 (≈ 152 µM) | 4 (≈ 9.47 µM) | 8 (≈ 18.9 µM) | 8 (≈ 18.9 µM)
CO/N=C(\C(=O)NC1CN2CC(C#N)=C(C(=O)O)N2C1=O)c1csc(N)n1 (configuration not stated) | 0.5 (≈ 1.28 µM) | 0.5 (≈ 1.28 µM) | > 128 | 0.5 (≈ 1.28 µM) | 64 (≈ 164 µM) | 2 (≈ 5.11 µM) | 1 (≈ 2.56 µM) | 2 (≈ 5.11 µM)
CO/N=C(\C(=O)NC1CN2CC(C(C)=O)=C(C(=O)O)N2C1=O)c1csc(N)n1 (configuration not stated) | 2 (≈ 4.9 µM) | 1 (≈ 2.45 µM) | > 128 | 1 (≈ 2.45 µM) | 32 (≈ 78.4 µM) | 4 (≈ 9.79 µM) | 8 (≈ 19.6 µM) | 2 (≈ 4.9 µM)
CO/N=C(\C(=O)NC1CN2CCC(C(=O)OC)=C(C(=O)O)N2C1=O)c1csc(N)n1 (configuration not stated) | > 128 | > 128 | > 128 | > 128 | > 128 | > 128 | > 128 | > 128
